US9447446B2, “Lipid multilayer microarrays and their use for cell culture screening” (FLORIDA STATES UNIVERSITY RESEARCH FOUNDATION, priority 2011, dated 2016)

Assays:
[1] = system: NIH 3T3 cells; type: cell-based; details: for cell death over drug pattern: lipid (DOTAP)-encapsulated drug pattern, FIG. 21
Description: NIH 3T3 cells (obtained from the American Type Culture Collection, CRL-1658™, and maintained according to the collections guidelines) for all experiments are seeded at 4×10^5 cells/mL and grown to 70% confluence in Dulbecco's Modified Eagle Medium supplemented with 10% Cosmic Calf Serum (Sigma Aldrich). Trypsin (0.25%) is used for cell detachment, and the medium is replaced with fresh medium 24 hours before the experiment. Cells are seeded onto the patterned glass coverslips by gently pipetting a drop of the cell suspension directly over each pattern to prevent the patterns from being washed away. The same method is used to seed other parts of the slide for use as control areas. The cells are incubated over the patterned areas for 48 hours.
Aliquots of valinomycin (20 mg/mL) and DOTAP (20 mg/mL), both dissolved in chloroform, are placed in an amber glass vial and serially diluted to produce valinomycin masses of 20, 10, 5, 2.5, 1.25 and 0.63 mg. Drying, liposome formation and cell culture are conducted as described above for the Rhodamine dose-response. Toxicity assays are performed after 24 and 48 hours.
Docetaxel (20 mg/mL) dissolved in DMSO is further serially diluted in Hank's buffered salt solution to produce seven solutions with docetaxel masses of 50, 25, 12.5, 6.25, 3.2, 1.6 and 0.8 mg respectively, each with a total volume of […]. The eighth is a solution of DMSO only (control) at the same volume as the 50 mg solution. These mixtures are added to […] of medium and added to the cells in the same manner as described above for the Rhodamine dose-response. Toxicity assays are performed after incubation for 48 hours.
The BacLight live/dead assay is purchased from Invitrogen. The cells are incubated with both SYTO 9 and propidium iodide for 20 min. The cells stained with both are counted as dead, and those stained with SYTO 9 only are counted as live.^34,35 All counting of live and dead cells is done by hand.
Valinomycin is tested first because of its quick action as a cytotoxic agent and immediate action upon incorporation into the cellular membrane. The drug acts as a potassium ionophore, facilitating loss of potassium and resulting in cell death. FIGS. 16, 17, 18 and 19 show a toxicity assay of cells that are cultured over a lipid multilayer microarray. […] In FIGS. 16, 17 and 18, arrows in 1612, 1614 and 1616 point to the same alignment mark. FIG. 16 is a brightfield image of DOTAP/valinomycin pattern before cell culture. […] FIG. 18 is a higher magnification of the square area 1702 of FIG. 17. Images are taken after 24 hours. Images in FIGS. 17 and 18 are the merged TRITC and FITC fluorescence channel images. FIG. 19 is a mosaic of images (TRITC filter set). Central square 1902 corresponds to FIG. 17, and the other squares are the areas immediately surrounding central square 1902. All live cells are stained green; nuclei of dead cells are stained red.
Taxotere® (docetaxel) is an anticancer drug and is a second-generation, semisynthetic analog of Taxol® (paclitaxel). Taxanes, which include paclitaxel and docetaxel, work by binding to microtubules and stabilizing them, thus preventing their disassembly and progression through mitosis, and therefore their functioning inside the cytoplasm. The cell may revert to the G1 phase or undergo apoptosis.^36 Cells are plated over patterns (such as that in FIG. 16) consisting of lipid only, lipid-encapsulated docetaxel and lipid-encapsulated valinomycin, all on the same glass coverslip and incubated for 48 hours. The results are shown in FIGS. 20, 21, 22, 23, 24, 25, 26, 27, 28 and 29.

[2] = system: NIH 3T3 cells; assay: live cell imaging of DOPE-rhodamine uptake from lipid pattern; type: cell-based; details: cells cultured over lipid pattern for 25 hours; decrease starts after 20 hours, complete by 25 hours
Description: DOTAP is mixed with 1 mol % DOPE-rhodamine, and 2 μL was deposited in the M-type inkwell for the DPN 2000.
Microscopy for all the imaging except the supplementary video is done with a Nikon Eclipse Ti microscope. The printed patterns and the Retiga-SRV fast 1394 camera are used. Patterns are imaged in brightfield before cell culture. Nikon fluorescence filter sets B-2E/C FITC and G-2E/C TRITC are used for the live/dead cell assay. Imaging is done at 800 m sec exposure time with the 10× (NA=0.3) objective and at 1 second for the 4× (NA=0.13) objective. Lamp intensity for all imaging is set at 4. Microscopy for the live cell lipid uptake for the supplementary video is done with a Nikon TE-2000-E inverted microscope equipped with a Nikon Plan Apo 40× (NA=0.95) DIC objective.
FIGS. 10, 11, 12, 13, 14 and 15 show the uptake of DOPE-rhodamine-labeled DOTAP by NIH 3T3 cells. […] Fluorescence intensity is used as the indicator of the amount of lipid taken up by the cells. A higher fluorescence in cells indicates higher uptake of lipids. Grid lines 1022 and 1024 in FIG. 10 and grid lines 1026 and 1028 in FIGS. 10 and 11 divide the images of FIGS. 10 and 11 into areas 1032 and 1034, respectively, analyzed and compared for fluorescence intensity before and after cell incubation on the patterns. […]

[3] = NIH 3T3 cells, 48 hours, live/dead assay

CCCCCCCC/C=C\CCCCCCCC(=O)OCC(C[N+](C)(C)C)OC(=O)CCCCCCC/C=C\CCCCCCCC.[Cl-] (stereo not shown) [DOTAP, 1,2-dioleoyl-3-trimethylammonium-propane (chloride salt)]
toxicity of lipid-only pattern versus control with medium only ([1]; DOTAP-only pattern, NIH 3T3 cells, 48 hours, p>0.05): did not differ significantly

1,2-dioleoyl-sn-glycerol-3-phosphoethanolamine-N-(lissamine rhodamine b sulfonyl) (ammonium salt) [DOPE-rhodamine]
critical uptake time (window in which fluorescence of absorbed spots disappears) [2]: 5 h

CC(=O)O[C@@]12CO[C@@H]1C[C@H](O)[C@@]1(C)C(=O)[C@H](O)C3=C(C)[C@@H](OC(=O)[C@H](O)[C@@H](NC(=O)OC(C)(C)C)c4ccccc4)C[C@@](O)([C@@H](OC(=O)c4ccccc4)[C@H]21)C3(C)C [docetaxel]
comparable concentration of docetaxel dissolved in DMSO delivered from solution ([1]; equivalent solution concentration for the toxicity of the docetaxel pattern, 48 hours): approximately 6.25 mg/mL | cell death over drug pattern [1, 3]: over 60%

CC(C)[C@@H]1NC(=O)[C@H](C)OC(=O)[C@@H](C(C)C)NC(=O)[C@@H](C(C)C)OC(=O)[C@H](C(C)C)NC(=O)[C@H](C)OC(=O)[C@@H](C(C)C)NC(=O)[C@@H](C(C)C)OC(=O)[C@H](C(C)C)NC(=O)[C@H](C)OC(=O)[C@@H](C(C)C)NC(=O)[C@@H](C(C)C)OC1=O [valinomycin]
toxicity level from the surface (cells killed) ([1]; DOTAP/valinomycin pattern (4:1 lipid-to-drug), NIH 3T3 cells, 24 hours, live/dead assay): about 11% | corresponding concentration of liposomal drug delivered from solution ([1]; equivalent solution concentration for the toxicity of the DOTAP/valinomycin pattern, 24 hours): about 0.1 mg/mL | cell death over drug pattern [1, 3]: about 25%
